Measured values from patent US20230263822A1, “MODULATION OF FACTOR 11 EXPRESSION” (Ionis Pharmaceuticals, Inc., priority 2008, published 2023).
Strand notation (5' to 3'): a small letter for the sugar, then the base; units joined by * are phosphorothioate-linked, units joined directly phosphodiester-linked; [ ] holds rarer units or linkages, { } end groups; capitals alone tell only the bases. e = 2'-O-(2-methoxyethyl) (MOE); [5mC] = 5-methylcytosine; d = 2'-deoxy (DNA)

How the values were obtained:
blood coagulation = assay: PT and aPTT assay in cynomolgus monkeys (Example 46); assay type: in vivo; settings: for PT ratio (INR) / aPTT ratio relative to PBS group: platelet poor plasma, relative to PBS group
Method: (§1) Groups, each consisting of two male and two female monkeys, were injected subcutaneously with 25 mg/kg of ISIS 416850, ISIS 449709, ISIS 445522, ISIS 449710, ISIS 449707, ISIS 449711, ISIS 449708, 416858, and ISIS 445531. Antisense oligonucleotide was administered to the monkeys at 25 mg/kg three times per week for week 1 and 25 mg/kg twice per week for weeks 2 to 8. A control group, consisting of two male and two female monkeys was injected subcutaneously with PBS according to the same dosing regimen. Body weights were taken 14 days and 7 days before the start of treatment and were then measured weekly throughout the treatment period. Blood samples were collected 14 days and 5 days before the start of treatment and subsequently several times during the dosing regimen for PT and aPTT measurements, and measurement of various hematologic factors. On day 55, the monkeys were euthanized by exsanguination while under deep anesthesia, and organs harvested for further analysis.
PT and aPTT were measured using platelet poor plasma (PPP) from […] treated with ISIS oligonucleotides. PT and aPTT values are provided in Tables 148 and 149 and are reported as International Normalized Ratio (INR) values. INR values for PT and aPTT were determined by dividing the PT or aPTT value for each experimental group by the PT or aPTT for the PBS treated group. This ratio was then raised to the power of the International Sensitivity Index (ISI) of the tissue factor used. […] Therefore, antisense reduction of Factor 11 with these ISIS oligonucleotides is useful for inhibiting the formation of a thrombus or clot in response to an abnormal vessel wall, but not in response to tissue injury.

[1] = Hematology assays in cynomolgus monkeys (Example 46); assay type: in vivo
Method: as §1

Question: With “ISIS 445522: 5-8-5 or 6-8-6 MOE microwalk gapmer (Table 44) (antisense eG*e[5mC]*eA*e[5mC]*eA*dG*dT*dT*dT*d[5mC]*dT*dG*dG*e[5mC]*eA*eG*eG*e[5mC])” as the substance, how does the “PT ratio (INR)” value (blood coagulation; Day 10) read?
Answer: 0.95

Question: And the “aPTT ratio relative to PBS group” value (blood coagulation; Day 10)?
Answer: 1.06

Question: What about the “PT ratio (INR)” value (blood coagulation; Day 17) of the same substance?
Answer: 0.96

Question: And the “aPTT ratio relative to PBS group” value (blood coagulation; Day 17)?
Answer: 1.10

Question: What about the “PT ratio (INR)” value (blood coagulation; Day 24) of the same substance?
Answer: 0.94

Question: What about the “aPTT ratio relative to PBS group” value (blood coagulation; Day 24) of the same substance?
Answer: 1.14

Question: What about the “PT ratio (INR)” value (blood coagulation; Day 31) of the same substance?
Answer: 0.96

Question: And the “aPTT ratio relative to PBS group” value (blood coagulation; Day 31)?
Answer: 1.25

Question: And the “PT ratio (INR)” value (blood coagulation; Day 38)?
Answer: 0.97

Question: And the “aPTT ratio relative to PBS group” value (blood coagulation; Day 38)?
Answer: 1.32

Question: What about the “PT ratio (INR)” value (blood coagulation; Day 45) of the same substance?
Answer: 0.96

Question: And the “aPTT ratio relative to PBS group” value (blood coagulation; Day 45)?
Answer: 1.39

Question: What about the “PT ratio (INR)” value (blood coagulation; Day 52) of the same substance?
Answer: 0.98

Question: And the “aPTT ratio relative to PBS group” value (blood coagulation; Day 52)?
Answer: 1.39

Question: And the “PT ratio (INR)” value (blood coagulation; Day 55)?
Answer: 1.01

Question: And the “aPTT ratio relative to PBS group” value (blood coagulation; Day 55)?
Answer: 1.42

Question: And the “PT ratio (INR)” value (blood coagulation; Day −5)?
Answer: 0.94

Question: And the “aPTT ratio relative to PBS group” value (blood coagulation; Day −5)?
Answer: 0.91

Question: What about the “PT ratio (INR)” value (blood coagulation; Day −14) of the same substance?
Answer: 1.00

Question: And the “aPTT ratio relative to PBS group” value (blood coagulation; Day −14)?
Answer: 0.96

Question: And the “aPTT” value (blood coagulation; cynomolgus monkeys, 25 mg/kg)?
Answer: significantly prolonged

Question: And the HCT ([1]; Day 17)?
Answer: 41%

Question: What about the MCH ([1]; Day 17) of the same substance?
Answer: 22.8 pg

Question: What about the MCHC ([1]; Day 17) of the same substance?
Answer: 30.9 g/dL

Question: What about the MCV ([1]; Day 17) of the same substance?
Answer: 74 fL

Question: And the RBC count ([1]; Day 17)?
Answer: 5.6e+06 µL⁻¹

Question: What about the WBC count ([1]; Day 17) of the same substance?
Answer: 11000 µL⁻¹

Question: What about the hemoglobin content ([1]; Day 17) of the same substance?
Answer: 12.7 g/dL

Question: And the monocytes ([1]; Day 17)?
Answer: 3.6%

Question: And the neutrophils ([1]; Day 17)?
Answer: 81%

Question: What about the platelet count ([1]; Day 17) of the same substance?
Answer: 521 ×100/μL

Question: And the HCT ([1]; Day 31)?
Answer: 43%

Question: What about the MCH ([1]; Day 31) of the same substance?
Answer: 22.4 pg

Question: What about the MCHC ([1]; Day 31) of the same substance?
Answer: 30.0 g/dL

Question: And the MCV ([1]; Day 31)?
Answer: 75 fL

Question: What about the RBC count ([1]; Day 31) of the same substance?
Answer: 5.8e+06 µL⁻¹

Question: And the WBC count ([1]; Day 31)?
Answer: 13000 µL⁻¹

Question: And the hemoglobin content ([1]; Day 31)?
Answer: 12.9 g/dL

Question: And the monocytes ([1]; Day 31)?
Answer: 3.9%

Question: And the neutrophils ([1]; Day 31)?
Answer: 66%

Question: And the platelet count ([1]; Day 31)?
Answer: 425 ×100/μL

Question: And the HCT ([1]; Day 45)?
Answer: 41%

Question: And the MCH ([1]; Day 45)?
Answer: 22.4 pg

Question: What about the MCHC ([1]; Day 45) of the same substance?
Answer: 30.7 g/dL

Question: And the MCV ([1]; Day 45)?
Answer: 73 fL

Question: And the RBC count ([1]; Day 45)?
Answer: 5.7e+06 µL⁻¹

Question: What about the WBC count ([1]; Day 45) of the same substance?
Answer: 10000 µL⁻¹

Question: And the hemoglobin content ([1]; Day 45)?
Answer: 12.6 g/dL

Question: And the monocytes ([1]; Day 45)?
Answer: 4.4%

Question: And the neutrophils ([1]; Day 45)?
Answer: 69%

Question: What about the platelet count ([1]; Day 45) of the same substance?
Answer: 403 ×100/μL

Question: What about the HCT ([1]; Day 55) of the same substance?
Answer: 39%

Question: What about the MCH ([1]; Day 55) of the same substance?
Answer: 22.2 pg

Question: What about the MCHC ([1]; Day 55) of the same substance?
Answer: 31.0 g/dL

Question: And the MCV ([1]; Day 55)?
Answer: 72 fL

Question: And the RBC count ([1]; Day 55)?
Answer: 5.4e+06 µL⁻¹

Question: What about the WBC count ([1]; Day 55) of the same substance?
Answer: 11000 µL⁻¹

Question: What about the hemoglobin content ([1]; Day 55) of the same substance?
Answer: 12.0 g/dL

Question: And the monocytes ([1]; Day 55)?
Answer: 3.0%

Question: What about the neutrophils ([1]; Day 55) of the same substance?
Answer: 125%

Question: What about the platelet count ([1]; Day 55) of the same substance?
Answer: 333 ×100/μL

Question: What about the HCT ([1]; Day-5) of the same substance?
Answer: 42%

Question: And the MCH ([1]; Day-5)?
Answer: 22.5 pg

Question: And the MCHC ([1]; Day-5)?
Answer: 30.4 g/dL

Question: What about the MCV ([1]; Day-5) of the same substance?
Answer: 74 fL

Question: And the RBC count ([1]; Day-5)?
Answer: 5.6e+06 µL⁻¹

Question: And the WBC count ([1]; Day-5)?
Answer: 9000 µL⁻¹

Question: And the hemoglobin content ([1]; Day-5)?
Answer: 12.7 g/dL

Question: And the monocytes ([1]; Day-5)?
Answer: 2.3%

Question: And the neutrophils ([1]; Day-5)?
Answer: 84%

Question: And the platelet count ([1]; Day-5)?
Answer: 512 ×100/μL

Question: What about the HCT ([1]; Day-14) of the same substance?
Answer: 42%

Question: What about the MCH ([1]; Day-14) of the same substance?
Answer: 22.6 pg

Question: What about the MCHC ([1]; Day-14) of the same substance?
Answer: 31.4 g/dL

Question: And the MCV ([1]; Day-14)?
Answer: 72 fL

Question: And the RBC count ([1]; Day-14)?
Answer: 5.9e+06 µL⁻¹

Question: What about the WBC count ([1]; Day-14) of the same substance?
Answer: 10000 µL⁻¹

Question: What about the hemoglobin content ([1]; Day-14) of the same substance?
Answer: 13.3 g/dL

Question: What about the monocytes ([1]; Day-14) of the same substance?
Answer: 2.1%

Question: And the neutrophils ([1]; Day-14)?
Answer: 61%

Question: What about the platelet count ([1]; Day-14) of the same substance?
Answer: 433 ×100/μL
